Test results published in a melting point compilation (Tetko et al.; mined from patent text by program, amines drawn as free bases though some values may be those of a salt).

melting point [°C] | Compound
88 to 90 | COC1=CC(=O)C(O)=C(CCCCCCC/C=C\CCCCCCCC2=C(O)C(=O)C(C)=C(OC)C2=O)C1=O
227 to 229 | COc1ccc(-c2nc3cnccc3[nH]2)cc1S(C)=O (stereo unspecified)
118 | CC1=C(CCO)c2cc(F)ccc2/C1=C\c1ccc(S(C)(=O)=O)cc1
65 to 66 | CC(=O)c1cccc2cc[nH]c12
142 to 144 | COC(=O)CN(C)C(=O)c1c(OC)ccc2c(Br)c(OC)ccc12
151 to 152 | Cc1onc(-c2c(Cl)cccc2Cl)c1CSc1ccc(OCC(=O)O)c2c1CCC2
259 | CCOC(=O)c1[nH]c(=O)[nH]c(=O)c1[N+](=O)[O-]
180 to 182 | Cc1ccc(S(=O)(=O)NCc2ccc(CCN3CCN(c4ccncc4)CC3)cc2)cc1
162 | CCc1nc2c(C)nc(C)nc2n1-c1ccc(CCOC(=O)NS(=O)(=O)c2ccc(C)cc2)cc1
96 to 98 | CCCCc1oc2ccccc2c1C(OC)c1cc(I)c(OCCN(CC)CC)c(I)c1 (stereo unspecified)
176 to 177 | O=C(O)c1ccccc1C(=O)c1ccc(Cl)c(S(=O)(=O)Cl)c1
104 to 106 | Cc1ccc(C)c(N2C(=O)CON(C)C2=S)c1
209 to 211 | O=C(NCCSc1ccccn1)Nc1cc(N2CC(c3ccccc3)OC2=O)ccn1 (stereo unspecified)
155 to 175 | CC(C)(C)N(NC(=O)c1ccccc1)C(=O)c1ccco1
80 | Cc1cc(CN(Cc2ccco2)c2sc(-c3ccc(C(F)(F)F)cc3)nc2C)ccc1OC(C)(C)C(=O)O
97.5 to 98.2 | CCN(CCCC12CC3CC(CC(C3)C1)C2)C(=O)NCCCc1ccncc1
245 to 247 | CC1COCc2nc3c(N)nc4cc(CCC(=O)N5CCOCC5)ccc4c3n21 (stereo unspecified)
40 to 41 | CCSc1ccc(Cl)c(OS(C)(=O)=O)n1
216 to 218 | Cc1cc2ncnn2nc1OCC(C)(C)CS(N)(=O)=O
142 to 144 | CC(C)(C)OC(=O)NC1CCCCc2cc(OCC3CCCCC3)c(Br)cc21 (stereo unspecified)
87 to 88 | CC(C)(C)OC(=O)N[C@@H](CCCCNC[C@H](O)CCl)C(=O)OC(C)(C)C
101 | C=CC(C)Nc1c(-c2c(F)cc(F)cc2F)c(Cl)nc2ncnn12 (stereo unspecified)
150 to 153 | CCOC(=O)C1=Cc2cc(-c3ccc(S(C)(=O)=O)cc3)ccc2OCC1
258 | O=C1c2ccccc2C(=O)c2sc(-c3ccc(Cl)o3)nc21
167 to 168 | COCc1cn2c(C)c(C)nc2c(O)c1CCC(=O)c1ccccc1

melting point [°C] | Compound
169 to 170 | CCOC(=O)c1nc2ccccc2[nH]c1=O
222 to 224 | Cn1cc(C2=C(c3cn(CCCN=[N+]=[N-])c4ccccc34)C(=O)NC2=O)c2ccccc21
256 to 258 | Nc1ccc(-c2cc3[nH]c4ccc(O)cc4c3c3c2C(=O)NC3=O)cc1
192 | O=C(O)CCCc1cc2cc(Cl)ccc2n1S(=O)(=O)c1ccccn1
171 to 172 | CCc1ccccc1NS(=O)(=O)c1ccc(N2CCNC2=O)cc1
118 to 121 | O=C(COc1ccc([N+](=O)[O-])cc1)OCCOC(=O)COc1ccc([N+](=O)[O-])cc1
136 to 137 | Cc1noc(NS(=O)(=O)c2ccccc2-c2ccccn2)c1C
252 to 253 | O=C(O)c1ccc(-c2c(-c3ccccc3)[nH]c3ccccc23)cc1
142 | COc1ccc(-c2nc(N)ncc2-c2ccc(=O)[nH]n2)cc1
178 to 180 | Cc1cc(OCc2ccccc2)c2cc(C(=O)O)[nH]c2c1
150 | CC(C)N=CN1c2ccccc2Cc2ccccc21
294 to 295 | O=[N+]([O-])c1cn2c(n1)OC(COc1ccc(N3CCN(NCc4ccc(-c5ccc(C(F)(F)F)cc5)cc4)CC3)cc1)CC2 (stereo unspecified)
138 to 139 | CS(=O)(=O)c1ccc(-c2cc(C(F)F)nn2C2CCCCC2)cc1F
152 to 155 | Cc1nc2c(N)nc3ccccc3c2n1CCOCCNS(C)(=O)=O
210 to 212 | COc1cc(C=C2SC(=O)NC2=O)ccc1OCCN1c2ccccc2Sc2ccccc21
180 to 182 | OC(CSc1nc[nH]n1)(Cn1cncn1)c1ccc(Cl)cc1Cl (stereo unspecified)
156 to 157 | COc1ccc(Cn2cc[nH]c2=S)cc1F
269 to 270 | Cc1nnc(CNC(=O)CNC(=O)CN2C(=O)c3ccccc3C2=O)n1-c1ccc(Cl)cc1C(=O)c1ccccc1Cl
138 to 140 | COc1ccc2nc(CO)n(C)c2n1
61 to 64 | CCCCCCCCCCCCCCCCCCOc1ccc(C(=O)OC)c(O)c1
174 to 178 | COc1ccc(S(C)(=O)=O)cc1N
185 | CC(C)(C)OC(=O)NCc1nc(C(=O)O)cs1
79 to 81 | CCOc1ccc(OCCCCCN2CCN(c3nccs3)CC2)cc1
151 to 152 | Cc1nc(-c2cccc(Nc3ccc(I)cc3N)c2)cs1
123 to 126 | C=CC[C@H](CC(=O)OC(C)(C)C)C(=O)N[C@H](C(=O)N[C@H](C)c1ccccc1)C(C)(C)C

melting point [°C] | Compound
> 348 | CNc1ccc2n[nH]c(=O)n2n1
314 to 316 | N#CC1C(=O)Nc2cc(Cl)ccc2C1=O (stereo unspecified)
244 to 246 | O=C(O)C1CN(C(=O)N(c2ccccc2)c2ccccc2)CCN1C(=O)N(c1ccccc1)c1ccccc1 (stereo unspecified)
93 to 95 | FC(F)(F)c1ccc(-c2nc(Oc3csc(C(F)(F)F)c3)cc(Oc3csc(C(F)(F)F)c3)n2)cc1
186 to 188 | COc1ccc(-n2c(=O)n(OCc3ccccc3)c(=O)c3cc(F)c(N4CCCC4)nc32)cc1
174 to 176 | CCCn1cc(C(=O)NCc2ccc(Cl)cc2)c(=O)c2cc(CN3CCOCC3)sc21
129 to 130 | CC1CCC(=NC(=O)Nc2cccc(Cl)c2)N1C (stereo unspecified)
175 to 176 | CCCc1c(OCCOc2ccc(C(=O)O)cc2)ccc(C(C)=O)c1O
201 to 209 | COc1ccc(OC)c(S(=O)(=O)n2c(CCCC(=O)O)cc3cc(Cl)ccc32)c1
165 to 166 | COc1cc(C(=O)Nc2c(Cl)cncc2Cl)cc2c1oc1ccccc12
145 | O=C(NC[C@@H](C(=O)NO)N1CCCCC1)c1ccc(OCc2cc(Cl)nc(Cl)c2)cc1
64 to 65 | Cc1ccc(S(=O)(=O)OCC2CCCc3scnc32)cc1 (stereo unspecified)
185 to 187 | O=C1CCc2cc(O)ccc21
294 to 296 | CC1(NC2=NS(=O)(=O)c3sc(Cl)cc3N2)CCC1
104 to 105 | Cn1cc(Br)cc(N)c1=O
> 300 | CC1(C)C(=O)Nc2cc3[nH]c(O)nc3cc21
207 to 208 | CC(=O)NC(C)Cc1ccc(C=CC(=O)O)cc1 (stereo unspecified)
138 to 140 | CS(=O)(=O)N(CCc1ccccc1)CC(O)(Cn1cncn1)c1ccc(Cl)cc1Cl (stereo unspecified)
190 to 193 | COc1ccc(C(=O)Nc2ccc(Cl)c(Cl)c2)cc1NC(=S)Nc1ccc(S(N)(=O)=O)cc1
245 to 257 | CC1(C)OC(c2ccc(S(C)(=O)=O)cc2)=C(c2ccc(S(C)(=O)=O)cc2)C1=O
144 to 146 | CC(C(=O)O)c1cccc(OCCC(=O)O)c1 (stereo unspecified)
144 to 145 | CCCCc1noc(-c2ccc(C=CC(=O)NCC3CCCC3(C)C)cc2)n1 (stereo unspecified)
200 to 202 | Clc1ccc(-c2nc3n(c2Br)CCS3)c(Cl)c1
188 to 191 | COc1ccccc1N(CN1C(=O)CSC1=O)C(=O)CCl
69 to 70 | CS(=O)(=O)Oc1ccc(N)c(OCCBr)c1

melting point [°C] | Compound
95 to 100 | CCOC(=Nc1cccc(C(F)(F)F)c1)C(C)C
124 to 125 | Cc1oc(-c2ccccc2)nc1CCC(=O)O
158 to 159 | COc1cc(Nc2c(C#N)cnc3cc(/C=C/CCN4CCCC4)c(OC)cc23)c(Cl)cc1Cl
128 to 130 | COC(=O)c1nc(NC(C)=O)ccc1Oc1cc(OC)cc(OC)n1
155 to 157 | CCOC(=O)C1C(=O)CC(C)(O)C(C(=O)OCC)C1c1cccc2oc3c(c12)CCCC3 (stereo unspecified)
238 to 240 | CCCCN1C(=O)CC(C(=O)Nc2nccs2)C(=O)c2ccc(Cl)cc21 (stereo unspecified)
57 | COC(CCCCC(N)=O)OC
155 to 156 | CCOC(=O)C=CC=Cc1ccc(C=Cc2nc(-c3ccco3)oc2C)cc1
122 to 123 | CCSc1cc(C)nc(SCC)c1NC(=O)CCCSc1nc2c(C)c(Cl)cc(C(C)C)c2o1
106 to 113 | CNc1ccc(-c2ncn(-c3ccc(C(F)(F)F)cc3)n2)cc1
114 to 120 | COc1cccc2c(CCCCN(CC3CC3)C3COc4c(F)ccc(C(N)=O)c4C3)coc12 (stereo unspecified)
221 to 223 | Cc1oc(-c2ccccc2)nc1CCOc1ccc(C[C@H](NC(=O)C=Cc2ccc(F)cc2F)C(=O)O)cc1Br
156 to 157 | O=C1N(c2ccc(Cl)cc2F)C(=S)C2CCCCC12O (stereo unspecified)
95 | COC(=O)c1nccnc1NCc1ccncc1
223 to 225 | CS(=O)(=O)Nc1ccc(CC#N)c2cn[nH]c12
157 to 158 | O=C1NCCSc2sccc21
145 to 146 | CCCc1nn(-c2ccc(C(F)(F)F)cn2)cc1CCCOc1c(C)cnn1CC(=O)O
150 to 151 | O=C(O)CCn1c(=O)c2ccccc2n(CCCN2CCC(OC(c3ccccc3)c3ccccc3)CC2)c1=O
191 to 193 | Cc1ccc2c(c1)Oc1ncc(N)cc1C(=O)N2C
180 | CCCCc1nn(Cc2ccc(C#N)cc2)c2ccccc2c1=O
272 to 274 | COc1ccc(Nc2cc(-c3ccccc3)nc3ccccc23)cc1Cl
103 to 104 | N#CCCn1nc(-c2ccccc2)ccc1=O

Compound | melting point [°C]
O=C(CBr)CS(=O)(=O)C(c1ccc(Cl)cc1)c1ccc(Cl)cc1 | 122 to 123
COCCOc1ccc(C#CC2(O)CN3CCC2CC3)cc1 (stereo unspecified) | 148 to 149
CCCN(CCC)Cc1nnc(-c2ncn3c2[C@@H]2CCCN2C(=O)c2c(Cl)cccc2-3)o1 | 158 to 160
COC(=O)c1nc(CN(C)C)n(-c2ccc(Cl)cc2C(=O)c2ccccc2Cl)n1 | 131 to 134
